Experimental findings from ChEMBL document CHEMBL4334537 (ACS Med Chem Lett, 2020) are described below.

A short description of series [1]: Chemical stability of fluorescent labelled compound in PBS buffer at pH 7.4 and 22 degree C measured after 48 hrs by RP-HPLC analysis. The format is physicochemical. To be noted: pH 7.4, 48 h.
Series [2] in a line: Chemical stability of fluorescent labelled compound in PBS buffer assessed as compound decomposition at pH 7.4 and 22 degree C after > 24 hrs by RP-HPLC analysis. Particulars: pH 7.4, 24 h. In kind it is physicochemical.

For `CC[C@H](C)[C@H](NC(=O)[C@H](Cc1ccc(O)cc1)NC(=O)[C@@H]1CCCN1C(=O)[C@H](CCCNC(=N)N)NC(=O)[C@@H](N)CCCNC(=N)NC(=O)NCCOCCOCCNC(=O)CCCCCN1/C(=C/C=C/C=C/C2=[N+](CCCCS(=O)(=O)[O-])c3ccccc3C2(C)C)C(C)(C)c2ccccc21)C(=O)N[C@@H](CC(C)C)C(=O)O.O=C(O)C(F)(F)F.O=C(O)C(F)(F)F.O=C(O)C(F)(F)F`, the Stability entry in series [1] is on record as “Stable”.

Turning to `CC[C@H](C)[C@H](NC(=O)[C@H](Cc1ccc(O)cc1)NC(=O)[C@@H]1CCCN1C(=O)[C@H](CCCNC(=N)N)NC(=O)[C@@H](N)CCCNC(=N)NC(=O)NCCOCCOCC[n+]1c(C)cc(/C=C/C=C/c2ccc(N(C)C)cc2)cc1C)C(=O)N[C@@H](CC(C)C)C(=O)O.O=C(O)C(F)(F)F.O=C(O)C(F)(F)F.O=C(O)C(F)(F)F.O=C([O-])C(F)(F)F`, the Stability result in series [2] is on record as “Unstable”.

In the case of `CC[C@H](C)[C@H](NC(=O)[C@H](Cc1ccc(O)cc1)NC(=O)[C@@H]1CCCN1C(=O)[C@H](CCCNC(=N)N)NC(=O)[C@@H](N)CCCNC(=N)NC(=O)NCCCCNC(=O)CCCCCN1/C(=C/C=C/C=C/C2=[N+](CCCCS(=O)(=O)[O-])c3ccccc3C2(C)C)C(C)(C)c2cc(S(=O)(=O)O)ccc21)C(=O)N[C@@H](CC(C)C)C(=O)O.O=C(O)C(F)(F)F.O=C(O)C(F)(F)F`, in series [1], the Stability result is reported as “Stable”.

With `CC[C@H](C)[C@H](NC(=O)[C@H](Cc1ccc(O)cc1)NC(=O)[C@@H]1CCCN1C(=O)[C@H](CCCNC(=N)NC(=O)NCCOCCOCCNC(=O)CCCCCN1/C(=C/C=C/C=C/C2=[N+](CCCCS(=O)(=O)[O-])c3ccccc3C2(C)C)C(C)(C)c2cc(S(=O)(=O)O)ccc21)NC(=O)[C@@H](N)CCCNC(=N)N)C(=O)N[C@@H](CC(C)C)C(=O)O.O=C(O)C(F)(F)F.O=C(O)C(F)(F)F`, the Stability result in series [1] is listed as “Stable”.
